# Tests used:
# [1] = biological target: T1, bacterial ornithine decarboxylase from E. Coli (Escherichia coli, UniProt P21169); assay: Inactivation of bacterial ornithine decarboxylase; format: biochemical; conditions: E. Coli enzyme
# T1 construct: bacterial ornithine decarboxylase from E. Coli; host or cells: E. coli
# [2] = biological target: T2, mammalian ornithine decarboxylase from rat liver (Rattus norvegicus, UniProt P09057); assay: Inactivation of mammalian ornithine decarboxylase; format: biochemical; conditions: rat liver enzyme
# T2 construct: mammalian ornithine decarboxylase from rat liver; from tissue; host or cells: rat liver
# T2 sequence (P09057 1-461): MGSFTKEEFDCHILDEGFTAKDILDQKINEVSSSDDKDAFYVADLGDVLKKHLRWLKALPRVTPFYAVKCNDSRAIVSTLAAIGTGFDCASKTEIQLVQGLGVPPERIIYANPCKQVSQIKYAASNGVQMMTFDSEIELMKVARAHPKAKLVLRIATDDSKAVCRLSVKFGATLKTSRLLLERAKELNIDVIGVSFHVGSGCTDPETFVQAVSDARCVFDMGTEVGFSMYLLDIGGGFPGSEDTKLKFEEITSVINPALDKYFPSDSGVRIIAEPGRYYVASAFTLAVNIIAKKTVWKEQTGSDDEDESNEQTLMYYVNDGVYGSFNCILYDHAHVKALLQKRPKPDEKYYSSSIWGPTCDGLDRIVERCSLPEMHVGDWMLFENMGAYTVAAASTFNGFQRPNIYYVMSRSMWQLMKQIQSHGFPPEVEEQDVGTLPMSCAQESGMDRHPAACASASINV
# Male Sim:(S.D.)fBR rats = assay: In vivo potentiation of L-DOPA induced behaviors; design: species or system rat; conditions: for Mean Behavior Score at 60 min.: score scale 0-6, before 200 mg/kg L-DOPA i.p.
# Method: Male Sim:(S.D.)fBR rats weighing 180-335 g were used for these experiments. Groups of 5 rats were individually housed and received water, or various doses of either 2-amino-2-(3-hydroxybenzyl)penta-3,4-dienoic acid or 2-amino-2-(3,4-dihydroxybenzyl)penta-3,4-dienoic acid 30 l minutes before 200 mg/kg of L-DOPA, i.p. Beginning 15 minutes later, behavioral observations were made at 15 minutes intervals for 2 hours. Behavoir was scored as follows:
# 3=Alert with intermittent sniffing
# [3] = biological target: T3, phenylalanine decarboxylase from Streptococcus faecallis (Enterococcus faecalis, UniProt Q838D6); assay: Time dependent inactivation of phenylalanine decarboxylase; format: biochemical; conditions: Streptococcus faecallis enzyme
# T3 construct: L-phenylalanine substrate, phenylethylamine by GC
# T3 sequence (Q838D6 1-620): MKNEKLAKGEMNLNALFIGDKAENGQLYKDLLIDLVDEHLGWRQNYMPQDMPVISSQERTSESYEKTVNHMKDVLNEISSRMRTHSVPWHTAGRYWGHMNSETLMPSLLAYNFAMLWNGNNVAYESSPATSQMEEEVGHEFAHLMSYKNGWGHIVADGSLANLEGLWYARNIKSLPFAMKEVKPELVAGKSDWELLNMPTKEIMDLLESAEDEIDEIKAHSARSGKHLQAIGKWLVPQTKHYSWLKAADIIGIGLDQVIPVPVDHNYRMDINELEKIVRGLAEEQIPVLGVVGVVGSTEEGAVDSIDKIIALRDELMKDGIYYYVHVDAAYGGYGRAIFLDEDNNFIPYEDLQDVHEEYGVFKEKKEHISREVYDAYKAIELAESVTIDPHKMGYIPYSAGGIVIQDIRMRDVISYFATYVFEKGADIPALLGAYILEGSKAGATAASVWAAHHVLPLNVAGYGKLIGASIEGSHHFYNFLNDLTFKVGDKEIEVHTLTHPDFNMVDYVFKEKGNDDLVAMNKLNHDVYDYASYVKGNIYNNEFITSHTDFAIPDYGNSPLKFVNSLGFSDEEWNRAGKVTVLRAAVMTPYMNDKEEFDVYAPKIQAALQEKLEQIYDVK
# Excerpt: (§1) Mammalian DOPA decarboxylase was isolated and purified from porcine kidney by the procedure of Borri-Voltatorni et al [Eur. J. Biochem., 93, 181 (1979)] with modifications as introduced by Rudd and Thanassi [Biochemistry, 20, 7469 (1981)]. Bacterial L-phenylalanine and L-tyrosine decarboxylases ex Streptococcus faecallis were purchased from Sigma Chemical Co. as crude extracts and studied without further purification.
# (§2) The time dependent inactivation of bacterial aromatic amino acid decarboxylases with 200-1000 micromolar inhibitor, e.g. 2-amino-2-(4-hydroxybenzyl)-penta-3,4-dienoic acid or 2-amino-2-benzylpenta-3,4-dienoic acid, was monitored at pH 5.5 and 37° C. Residual activity of tyrosine decarboxylase ex Streptococcus faecallis was determined by measurement of p-tyramine production at pH 5.5 and 37° C. p-Tyramine was separated by HPLC and quantified by electrochemical oxidation at +0.7 volts.
# Residual activity of L-phenylalanine decarboxylase ex Streptococcus faecallis with L-phenylalanine (2 mM) as substrate was meaasured by gas chromatographic analysis of phenylethylamine production. Direct injection of enzymatic reaction mixture (1-5 microliters) onto a standard glass column packed with 10% Apiezon L on Chromosorb 80/100 deactivated with 2% KOH allowed separation of aromatic amine from the reaction mixture. FID detection quantified the rate of product formation.
# [4] = biological target: T4, mammalian DOPA decarboxylase from porcine kidney (Sus scrofa, UniProt P80041); assay: Time dependent inactivation of DOPA decarboxylase; format: biochemical; conditions: porcine kidney enzyme
# T4 construct: isolated and purified from porcine kidney; from tissue; host or cells: porcine kidney
# T4 sequence (P80041 1-486): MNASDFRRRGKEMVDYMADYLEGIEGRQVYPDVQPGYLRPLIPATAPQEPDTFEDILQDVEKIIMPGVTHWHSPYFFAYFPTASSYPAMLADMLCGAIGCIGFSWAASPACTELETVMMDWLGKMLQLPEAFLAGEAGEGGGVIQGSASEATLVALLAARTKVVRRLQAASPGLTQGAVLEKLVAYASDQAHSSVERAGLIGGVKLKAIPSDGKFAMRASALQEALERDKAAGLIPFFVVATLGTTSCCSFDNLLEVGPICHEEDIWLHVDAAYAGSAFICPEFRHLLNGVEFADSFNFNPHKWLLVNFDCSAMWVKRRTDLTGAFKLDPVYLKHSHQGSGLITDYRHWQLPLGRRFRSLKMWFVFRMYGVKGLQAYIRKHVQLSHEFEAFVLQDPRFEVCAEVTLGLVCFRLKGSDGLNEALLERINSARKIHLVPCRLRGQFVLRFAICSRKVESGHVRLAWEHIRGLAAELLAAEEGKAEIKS
# Excerpt: as §1
# Time dependent inactivation of mammalian DOPA decarboxylase was monitored by incubation of enzyme with 4 to 100 molar equivalent excess of 2-amino-2-(3,4-dihydroxybenzyl)penta-3,4-dienoic acid at pH 6.8 and 37° C. At appropriate time intervals, aliquots of the mixture were withdrawn, diluted 30-fold into excess L-DOPA (2 mM) and residual DOPA decarboxylase activity determined.
# DOPA decarboxylase activity was routinely measured by liquid chromatography and electrochemical detection of catecholamine products. DOPA decarboxylase (1-5 micrograms, 1-20 units) was incubated with L-DOPA (2000 micromolar, 150 microliters) and PLP (10 micromolar) in 0.1M phosphate at pH 6.8 and 37° C. After 1-10 minutes, the reaction was quenched with citric acid (2M, 25 microliters), diluted two-fold with distilled water and 10 microliter aliquots were analyzed by HPLC on a reverse phase Brownlee RP-18 column. Isocratic elution with pH 4.35 buffer [0.1M NaOAc ([…]), 0.1M citric acid (32% v/v) and methanol (15% v/v)] at a flow rate of 2.5 ml/min. afforded baseline resolution of dopamine (RT=2.8 min.) from L-DOPA (RT=1.9 min.).
# Quantification of dopamine was accomplished by preoxidation of the catechol to the ortho quinone at +0.25 volts in the first analytical electrochemical cell, followed by the selective reduction of ortho quinone in the second analytical cell set at -0.25 volts. This configuration for the ESA electrochemical detector allowed highly sensitive and selective detection of catecholamines (less than 10 picomoles/injection).
# [5] = biological target: T5, bacterial tyrosine decarboxylase from Streptococcus faecallis (Enterococcus faecalis, UniProt Q838D6); assay: Time dependent inactivation of tyrosine decarboxylase; format: biochemical; conditions: Streptococcus faecallis enzyme
# T5 construct: purchased from Sigma Chemical Co. as crude extracts; purchased Sigma Chemical Co; host or cells: Streptococcus faecalis, crude extract
# T5 sequence (Q838D6 1-620): T3 sequence (Q838D6 1-620)
# Excerpt: as §1, §2
# [6] = Toxicity (acute, oral, mouse); format: in vivo; conditions: in vivo; acute, oral, mouse
# Method: (§3) 2-amino-2-(3-hydroxybenzyl)penta-3,4-dienoic acid prepared in CMC vehicle was administered once daily to groups of 6 male mice at doses 0, 62.5, 125, 250, and 500 mg/kg. […] Therefore, the LD50 (acute, oral, mouse) for 2-amino-2-(3-hydroxybenzyl)penta-3,4-dienoic acid is greater than 500 mg/kg.
# male mice = assay: Toxicity (acute, oral, mouse); format: in vivo; conditions: male mice; 62.5, 125, 250 and 500 mg/kg in CMC vehicle; observed for 21 days
# Method: as §3
# dermatophytes = assay: In vitro anti-microbial activity (dermatophytes); format: cell-based
# T1 sequence (P21169 whole entry): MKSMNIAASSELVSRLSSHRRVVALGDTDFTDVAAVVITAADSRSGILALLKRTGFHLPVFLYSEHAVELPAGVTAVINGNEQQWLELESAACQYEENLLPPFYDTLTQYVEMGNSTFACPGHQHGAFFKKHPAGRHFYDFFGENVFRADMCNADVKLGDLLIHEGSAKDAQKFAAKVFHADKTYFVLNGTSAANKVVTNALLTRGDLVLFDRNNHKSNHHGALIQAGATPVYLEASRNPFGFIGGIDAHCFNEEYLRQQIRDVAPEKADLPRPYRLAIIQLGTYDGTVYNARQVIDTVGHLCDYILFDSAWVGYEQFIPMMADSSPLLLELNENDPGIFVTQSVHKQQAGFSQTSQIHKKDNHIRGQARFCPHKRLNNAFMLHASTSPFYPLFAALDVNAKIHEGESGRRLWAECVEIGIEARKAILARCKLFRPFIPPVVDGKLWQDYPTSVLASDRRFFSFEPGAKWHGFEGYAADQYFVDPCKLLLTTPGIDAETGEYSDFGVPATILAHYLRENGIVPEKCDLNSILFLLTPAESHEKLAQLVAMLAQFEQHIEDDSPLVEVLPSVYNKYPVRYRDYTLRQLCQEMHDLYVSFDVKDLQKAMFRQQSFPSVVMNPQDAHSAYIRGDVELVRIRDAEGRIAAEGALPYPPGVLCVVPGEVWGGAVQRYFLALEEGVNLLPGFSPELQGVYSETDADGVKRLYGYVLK
compound,measurement,setting,value
"C=C=CC(N)(CCCN)C(=O)O (stereo not drawn) [2-amino-2-(3-amino-n-propyl)penta-3,4-dienoic acid]",irreversible inactivation of ornithine decarboxylase,[1],irreversible inactivators
same,irreversible inactivation of ornithine decarboxylase,[2],irreversible inactivators
"C=C=CC(N)(Cc1cccc(O)c1)C(=O)O (stereo not drawn) [2-amino-2-(3-hydroxybenzyl)penta-3,4-dienoic acid]",potentiation of the behaviors induced by L-DOPA,"Male Sim:(S.D.)fBR rats; 3-30 mg/kg i.p. or 30-150 mg/kg s.c., 30 minutes before 200 mg/kg L-DOPA i.p.",potentiated the behaviors induced by L-DOPA
same,Mean Behavior Score at 60 min.,Male Sim:(S.D.)fBR rats; 3-30 mg/kg i.p.,3.4
same,potentiation of DOPA behaviors,Male Sim:(S.D.)fBR rats; 3 to 30 mg/kg i.p. or 30 to 150 mg/kg s.c.,potentiate DOPA behaviors
same,Mean Behavior Score at 60 min.,Male Sim:(S.D.)fBR rats; 30-150 mg/kg s.c.,3.4
same,irreversible inactivation of phenylalanine decarboxylase,[3],irreversible inactivators
same,irreversible inactivation of DOPA decarboxylase,[4],irreversible inactivators
same,irreversible inactivation of tyrosine decarboxylase,[5],irreversible inactivators
same,LD50 at 504 h,[6],> 500 mg/kg
same,deaths,male mice,no deaths
"C=C=C(C)C(N)C(=O)O (stereo not drawn) [2-amino-3-methylpenta-3,4-dienoic acid]",activity in vitro against a spectrum of dermatophytes,dermatophytes,active

# Source: US4661510A, “α-allenic-α-amino acids as enzyme inhibitors” (priority 1985, dated 1987)
